In ChEMBL document CHEMBL4425158, “Synthesis, structure-activity relationships and biological evaluation of 4,5,6,7-tetrahydropyrazolopyrazines as metabotropic glutamate receptor 5 negative allosteric modulators” (Bioorg Med Chem Lett, 2016):
Values after ≈ are worked out from the molar mass of the structure shown. Values belong to the compound of their own block, whether it stands above or below them. Active and inactive are the calls of the source. The calls are words filed in the database; no cut-off is given here.

What was measured:
[1] = Aqueous solubility of the compound at pH 7.4; type: physicochemical
[2] = Half life in rat plasma at 1 mg/kg, iv after 5 mins to 24 hrs; type: ADME, organism-based
[3] = Aqueous solubility of the compound at pH 1.2; type: physicochemical
[4] = molecular target: T1, Aryl hydrocarbon receptor (Homo sapiens, UniProt P35869); experiment: Induction of human AhR assessed as CYP450 activation; type: ADME
T1 sequence (P35869 whole entry): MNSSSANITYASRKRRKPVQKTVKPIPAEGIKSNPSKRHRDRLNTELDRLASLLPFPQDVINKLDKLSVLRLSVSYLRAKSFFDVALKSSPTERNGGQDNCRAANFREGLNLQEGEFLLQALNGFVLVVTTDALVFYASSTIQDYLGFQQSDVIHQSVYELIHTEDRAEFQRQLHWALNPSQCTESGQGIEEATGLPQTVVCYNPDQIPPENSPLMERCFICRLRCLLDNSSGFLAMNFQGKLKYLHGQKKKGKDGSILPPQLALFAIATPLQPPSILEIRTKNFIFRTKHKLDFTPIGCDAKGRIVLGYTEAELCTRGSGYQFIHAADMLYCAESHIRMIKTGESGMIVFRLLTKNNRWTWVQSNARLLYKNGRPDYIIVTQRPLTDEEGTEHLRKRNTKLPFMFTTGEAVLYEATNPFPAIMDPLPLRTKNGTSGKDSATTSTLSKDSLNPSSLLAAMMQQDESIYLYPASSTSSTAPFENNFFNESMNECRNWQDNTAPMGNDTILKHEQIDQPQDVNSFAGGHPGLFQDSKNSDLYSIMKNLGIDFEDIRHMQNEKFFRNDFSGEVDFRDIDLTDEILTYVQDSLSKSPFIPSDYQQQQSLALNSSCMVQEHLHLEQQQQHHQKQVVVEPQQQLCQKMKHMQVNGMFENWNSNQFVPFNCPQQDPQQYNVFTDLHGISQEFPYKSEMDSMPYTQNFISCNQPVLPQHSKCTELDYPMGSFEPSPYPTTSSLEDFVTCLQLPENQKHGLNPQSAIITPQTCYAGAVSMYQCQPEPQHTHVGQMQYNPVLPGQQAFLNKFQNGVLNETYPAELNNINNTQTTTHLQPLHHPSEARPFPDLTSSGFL

[5] = Oral bioavailability in rat plasma at 10 mg/kg, after 15 mins to 24 hrs; type: ADME, organism-based
[6] = molecular target: Voltage-gated inwardly rectifying potassium channel KCNH2 (Homo sapiens, UniProt Q12809); experiment: Inhibition of human ERG
[7] = AUC(0 to infinity) in rat plasma at 1 mg/kg, iv after 5 mins to 24 hrs; type: ADME, organism-based; design: dose 1 mg/kg, route intravenous, time infinity
Mus musculus = experiment: Antidepressant activity in CD1(ICR) mouse assessed as decrease in immobility time at 30 mg/kg, po after 1 hr by tail suspension test; type: functional, organism-based
Cytochrome P450 3A4 = Cytochrome P450 3A4 (Homo sapiens, UniProt P08684); experiment: Inhibition of CYP3A4 in human liver microsomes using midazolam as substrate after 10 mins in presence of NADPH by LC/MS/MS analysis; type: ADME
[8] = AUC(0 to infinity) in rat plasma at 10 mg/kg, po after 15 mins to 24 hrs; type: ADME, organism-based; design: dose 10 mg/kg, route oral, time infinity
[9] = Permeability of the compound at pH 7.4 by PAMPA; type: ADME; details: read-out: permeability
Cytochrome P450 2D6 = Cytochrome P450 2D6 (Homo sapiens, UniProt P10635); experiment: Inhibition of CYP2D6 in human liver microsomes using bufuralol as substrate after 10 mins in presence of NADPH by LC/MS/MS analysis; type: ADME
[10] = Unbound drug concentration in ICR mouse brain at 30 mg/kg, po after 1 hr by LC/MS/MS analysis; type: ADME, organism-based; details: in vivo
[11] = Ratio of drug level in brain to plasma in ICR mouse at 30 mg/kg, po after 1 hr by LC/MS/MS analysis; type: ADME, organism-based; details: read-out: BPR
P-gp (ABCB1) = P-gp (ABCB1) (Homo sapiens, UniProt P08183); experiment: Substrate activity at P-gp (unknown origin) assessed as efflux ratio; type: ADME; details: not told
[12] = Protein binding in ICR mouse brain at 30 mg/kg, po after 1 hr by LC/MS/MS analysis; type: ADME, organism-based; details: read-out: PB (converted)
[13] = Volume of distribution in steady state in rat plasma at 1 mg/kg, iv after 5 mins to 24 hrs; type: ADME, organism-based; details: read-out: Vdss
[14] = Drug uptake in ICR mouse brain at 30 mg/kg, po after 1 hr by LC/MS/MS analysis; type: ADME, organism-based; details: read-out: Drug uptake
Cytochrome P450 2C19 = Cytochrome P450 2C19 (Homo sapiens, UniProt P33261); experiment: Inhibition of CYP2C19 in human liver microsomes using (S)-mephenytoin as substrate after 10 mins in presence of NADPH by LC/MS/MS analysis; type: ADME
[15] = Cmax in rat plasma at 10 mg/kg, po after 15 mins to 24 hrs; type: ADME, organism-based; design: dose 10 mg/kg, route oral
Cytochrome P450 2C8 = molecular target: T2, Cytochrome P450 2C8 (Homo sapiens, UniProt P10632); experiment: Inhibition of CYP2C8 in human liver microsomes using amodiaquin as substrate after 10 mins in presence of NADPH by LC/MS/MS analysis; type: ADME
T2 sequence (P10632 whole entry): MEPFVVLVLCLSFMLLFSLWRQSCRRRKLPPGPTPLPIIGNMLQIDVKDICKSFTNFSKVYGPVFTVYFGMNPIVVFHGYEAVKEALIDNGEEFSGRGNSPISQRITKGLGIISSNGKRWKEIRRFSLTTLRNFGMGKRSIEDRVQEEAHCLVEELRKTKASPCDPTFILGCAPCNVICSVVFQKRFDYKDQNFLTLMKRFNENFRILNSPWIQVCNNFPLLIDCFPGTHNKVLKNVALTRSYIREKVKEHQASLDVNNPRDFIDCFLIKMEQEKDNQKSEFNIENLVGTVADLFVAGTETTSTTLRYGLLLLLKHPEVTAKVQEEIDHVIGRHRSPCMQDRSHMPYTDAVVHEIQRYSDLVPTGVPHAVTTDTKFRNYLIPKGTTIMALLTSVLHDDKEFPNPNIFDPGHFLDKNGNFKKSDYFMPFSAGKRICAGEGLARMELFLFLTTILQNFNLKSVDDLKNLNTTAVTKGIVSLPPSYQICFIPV

Cytochrome P450 1A2 = molecular target: T3, Cytochrome P450 1A2 (Homo sapiens, UniProt P05177); experiment: Inhibition of CYP1A2 in human liver microsomes using phenacetin as substrate after 10 mins in presence of NADPH by LC/MS/MS analysis; type: ADME
T3 sequence (P05177 whole entry): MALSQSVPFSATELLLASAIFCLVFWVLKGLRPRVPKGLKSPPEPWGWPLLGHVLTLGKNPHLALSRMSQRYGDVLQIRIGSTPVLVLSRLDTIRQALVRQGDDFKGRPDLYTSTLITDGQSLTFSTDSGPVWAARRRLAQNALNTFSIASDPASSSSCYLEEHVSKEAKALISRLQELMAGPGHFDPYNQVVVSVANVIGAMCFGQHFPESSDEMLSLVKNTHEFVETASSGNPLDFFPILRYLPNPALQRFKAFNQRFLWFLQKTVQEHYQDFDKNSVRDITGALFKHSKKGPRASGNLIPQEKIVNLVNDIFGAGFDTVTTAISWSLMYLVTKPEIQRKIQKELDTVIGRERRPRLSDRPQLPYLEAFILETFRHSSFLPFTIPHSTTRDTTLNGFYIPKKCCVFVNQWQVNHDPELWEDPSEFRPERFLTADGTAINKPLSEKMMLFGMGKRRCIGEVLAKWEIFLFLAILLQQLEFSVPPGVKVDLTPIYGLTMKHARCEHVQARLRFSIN

Cytochrome P450 2A6 = molecular target: T4, Cytochrome P450 2A6 (Homo sapiens, UniProt P11509); experiment: Inhibition of CYP2A6 in human liver microsomes using coumarin as substrate after 10 mins in presence of NADPH by LC/MS/MS analysis; type: ADME
T4 sequence (P11509 whole entry): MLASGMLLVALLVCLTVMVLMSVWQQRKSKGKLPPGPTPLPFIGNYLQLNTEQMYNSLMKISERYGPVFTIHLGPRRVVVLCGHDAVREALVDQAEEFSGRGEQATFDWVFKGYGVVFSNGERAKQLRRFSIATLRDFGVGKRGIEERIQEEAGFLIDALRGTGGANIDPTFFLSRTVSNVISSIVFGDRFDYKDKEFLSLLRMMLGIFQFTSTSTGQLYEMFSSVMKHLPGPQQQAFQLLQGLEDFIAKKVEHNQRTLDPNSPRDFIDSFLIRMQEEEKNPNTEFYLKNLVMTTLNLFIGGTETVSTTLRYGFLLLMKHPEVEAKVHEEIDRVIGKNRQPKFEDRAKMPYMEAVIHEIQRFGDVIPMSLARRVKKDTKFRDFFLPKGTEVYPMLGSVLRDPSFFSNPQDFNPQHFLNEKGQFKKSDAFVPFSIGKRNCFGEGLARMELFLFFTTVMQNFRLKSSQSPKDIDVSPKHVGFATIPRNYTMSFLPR

[16] = Metabolic stability in rat liver microsomes assessed as compound remaining at 1 uM after 30 mins in presence of NADPH by LC/MS/MS analysis; type: ADME, Microsome; details: read-out: Stability
[17] = Metabolic stability in human liver microsomes assessed as compound remaining at 1 uM after 30 mins in presence of NADPH by LC/MS/MS analysis; type: ADME, Microsome; details: read-out: Stability
[18] = molecular target: T5, Nuclear receptor subfamily 1 group I member 2 (Homo sapiens, UniProt O75469); experiment: Induction of human PXR assessed as CYP450 activation; type: ADME
T5 sequence (O75469 whole entry): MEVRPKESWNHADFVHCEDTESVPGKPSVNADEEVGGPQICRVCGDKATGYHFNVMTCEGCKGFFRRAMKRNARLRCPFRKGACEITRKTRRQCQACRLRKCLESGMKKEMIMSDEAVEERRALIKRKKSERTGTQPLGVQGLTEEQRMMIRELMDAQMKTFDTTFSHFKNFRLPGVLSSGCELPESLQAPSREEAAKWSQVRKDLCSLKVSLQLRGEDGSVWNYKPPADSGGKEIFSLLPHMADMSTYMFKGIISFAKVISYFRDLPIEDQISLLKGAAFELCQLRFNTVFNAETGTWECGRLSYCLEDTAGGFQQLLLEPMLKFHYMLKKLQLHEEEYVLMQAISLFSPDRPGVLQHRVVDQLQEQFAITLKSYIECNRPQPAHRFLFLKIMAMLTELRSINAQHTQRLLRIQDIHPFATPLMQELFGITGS

[19] = molecular target: Metabotropic glutamate receptor 5 (Homo sapiens, UniProt P41594); experiment: Negative allosteric modulation of human recombinant mGluR5 expressed in HEK293 cells assessed as L-glutamate-induced intracellular calcium mobilization incubated for 20 mins before L-glutamate addition; type: functional, cell-based
[20] = Plasma concentration in ICR mouse at 30 mg/kg, po after 1 hr by LC/MS/MS analysis; type: ADME, organism-based
Cytochrome P450 2C9 = Cytochrome P450 2C9 (Homo sapiens, UniProt P11712); experiment: Inhibition of CYP2C9 in human liver microsomes using diclofenac as substrate after 10 mins in presence of NADPH by LC/MS/MS analysis; type: ADME
[21] = Clearance in rat plasma at 1 mg/kg, iv after 5 mins to 24 hrs; type: ADME, organism-based

Chain of Metabotropic glutamate receptor 5 (P41594 whole entry): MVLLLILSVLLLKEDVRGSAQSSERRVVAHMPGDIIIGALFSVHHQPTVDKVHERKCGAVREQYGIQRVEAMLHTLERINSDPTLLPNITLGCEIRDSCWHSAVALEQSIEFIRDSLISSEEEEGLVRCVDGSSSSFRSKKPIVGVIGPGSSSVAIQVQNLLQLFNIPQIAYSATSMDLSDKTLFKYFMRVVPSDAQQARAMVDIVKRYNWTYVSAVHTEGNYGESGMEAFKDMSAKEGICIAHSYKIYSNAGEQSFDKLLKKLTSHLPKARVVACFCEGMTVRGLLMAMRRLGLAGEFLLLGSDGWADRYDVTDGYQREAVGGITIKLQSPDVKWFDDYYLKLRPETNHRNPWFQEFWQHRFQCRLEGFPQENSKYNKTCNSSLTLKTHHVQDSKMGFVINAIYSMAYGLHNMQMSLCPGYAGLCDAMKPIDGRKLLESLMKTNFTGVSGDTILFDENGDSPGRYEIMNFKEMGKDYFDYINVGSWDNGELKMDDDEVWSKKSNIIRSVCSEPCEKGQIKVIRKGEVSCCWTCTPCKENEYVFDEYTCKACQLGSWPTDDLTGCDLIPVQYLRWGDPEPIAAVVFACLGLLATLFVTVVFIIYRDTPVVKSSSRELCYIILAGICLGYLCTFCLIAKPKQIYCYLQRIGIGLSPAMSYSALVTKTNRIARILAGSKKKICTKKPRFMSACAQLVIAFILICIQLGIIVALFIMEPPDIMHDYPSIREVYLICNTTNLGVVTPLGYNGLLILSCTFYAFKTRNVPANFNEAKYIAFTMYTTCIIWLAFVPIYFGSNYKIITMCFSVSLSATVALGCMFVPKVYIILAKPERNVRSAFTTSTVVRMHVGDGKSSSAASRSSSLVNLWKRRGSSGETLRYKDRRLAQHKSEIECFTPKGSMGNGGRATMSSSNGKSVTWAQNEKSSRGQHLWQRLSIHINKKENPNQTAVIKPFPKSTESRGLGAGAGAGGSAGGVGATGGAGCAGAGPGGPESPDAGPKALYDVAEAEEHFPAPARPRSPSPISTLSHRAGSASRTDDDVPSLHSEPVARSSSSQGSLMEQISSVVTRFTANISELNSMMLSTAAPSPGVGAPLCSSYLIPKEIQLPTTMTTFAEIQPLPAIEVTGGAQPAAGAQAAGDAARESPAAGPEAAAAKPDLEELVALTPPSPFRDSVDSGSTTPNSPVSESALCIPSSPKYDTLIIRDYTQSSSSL
Chain of Cytochrome P450 2C9 (P11712 whole entry): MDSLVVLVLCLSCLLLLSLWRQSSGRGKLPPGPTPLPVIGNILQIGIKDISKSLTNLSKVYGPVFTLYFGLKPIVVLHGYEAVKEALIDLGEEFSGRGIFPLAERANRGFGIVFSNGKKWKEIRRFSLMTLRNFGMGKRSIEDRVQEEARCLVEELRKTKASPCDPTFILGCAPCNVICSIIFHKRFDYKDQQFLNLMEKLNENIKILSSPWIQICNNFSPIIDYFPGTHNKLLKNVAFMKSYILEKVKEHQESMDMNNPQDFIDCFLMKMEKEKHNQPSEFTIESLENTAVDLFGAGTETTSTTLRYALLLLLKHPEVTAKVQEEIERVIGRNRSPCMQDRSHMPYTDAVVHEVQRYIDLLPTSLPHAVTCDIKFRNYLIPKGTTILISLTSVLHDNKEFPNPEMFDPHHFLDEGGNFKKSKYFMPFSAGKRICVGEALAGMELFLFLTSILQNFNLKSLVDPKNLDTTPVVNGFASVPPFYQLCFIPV
Chain of Voltage-gated inwardly rectifying potassium channel KCNH2 (Q12809 whole entry): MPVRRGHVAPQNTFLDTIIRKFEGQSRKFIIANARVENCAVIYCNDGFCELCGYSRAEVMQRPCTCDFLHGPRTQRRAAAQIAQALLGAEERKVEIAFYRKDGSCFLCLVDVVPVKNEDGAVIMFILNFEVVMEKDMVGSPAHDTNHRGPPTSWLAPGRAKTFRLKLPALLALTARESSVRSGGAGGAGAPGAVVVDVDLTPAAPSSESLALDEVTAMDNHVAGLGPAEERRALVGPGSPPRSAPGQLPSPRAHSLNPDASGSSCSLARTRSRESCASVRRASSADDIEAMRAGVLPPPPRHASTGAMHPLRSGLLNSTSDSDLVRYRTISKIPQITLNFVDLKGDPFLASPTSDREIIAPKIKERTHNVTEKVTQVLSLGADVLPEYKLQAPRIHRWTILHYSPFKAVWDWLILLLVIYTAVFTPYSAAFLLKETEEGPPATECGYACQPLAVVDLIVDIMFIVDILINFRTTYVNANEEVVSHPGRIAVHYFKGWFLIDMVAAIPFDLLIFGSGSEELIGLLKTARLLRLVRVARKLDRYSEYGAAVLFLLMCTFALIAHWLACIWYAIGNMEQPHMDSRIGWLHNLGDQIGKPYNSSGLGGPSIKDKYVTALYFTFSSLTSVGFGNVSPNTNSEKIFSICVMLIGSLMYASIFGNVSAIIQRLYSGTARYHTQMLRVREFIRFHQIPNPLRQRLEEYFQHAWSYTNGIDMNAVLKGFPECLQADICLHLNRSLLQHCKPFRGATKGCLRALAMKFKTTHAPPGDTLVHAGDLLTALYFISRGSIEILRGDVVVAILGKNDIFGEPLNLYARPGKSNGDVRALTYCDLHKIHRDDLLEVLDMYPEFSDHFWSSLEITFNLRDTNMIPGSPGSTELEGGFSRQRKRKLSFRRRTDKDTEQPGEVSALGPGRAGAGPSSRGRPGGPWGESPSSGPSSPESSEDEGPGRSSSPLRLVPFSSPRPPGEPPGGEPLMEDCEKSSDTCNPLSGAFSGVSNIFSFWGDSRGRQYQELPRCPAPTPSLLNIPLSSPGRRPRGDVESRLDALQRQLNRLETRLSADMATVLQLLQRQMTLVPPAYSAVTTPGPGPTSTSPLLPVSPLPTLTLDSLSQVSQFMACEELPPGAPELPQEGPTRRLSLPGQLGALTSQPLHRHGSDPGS
Chain of P-gp (ABCB1) (P08183 whole entry): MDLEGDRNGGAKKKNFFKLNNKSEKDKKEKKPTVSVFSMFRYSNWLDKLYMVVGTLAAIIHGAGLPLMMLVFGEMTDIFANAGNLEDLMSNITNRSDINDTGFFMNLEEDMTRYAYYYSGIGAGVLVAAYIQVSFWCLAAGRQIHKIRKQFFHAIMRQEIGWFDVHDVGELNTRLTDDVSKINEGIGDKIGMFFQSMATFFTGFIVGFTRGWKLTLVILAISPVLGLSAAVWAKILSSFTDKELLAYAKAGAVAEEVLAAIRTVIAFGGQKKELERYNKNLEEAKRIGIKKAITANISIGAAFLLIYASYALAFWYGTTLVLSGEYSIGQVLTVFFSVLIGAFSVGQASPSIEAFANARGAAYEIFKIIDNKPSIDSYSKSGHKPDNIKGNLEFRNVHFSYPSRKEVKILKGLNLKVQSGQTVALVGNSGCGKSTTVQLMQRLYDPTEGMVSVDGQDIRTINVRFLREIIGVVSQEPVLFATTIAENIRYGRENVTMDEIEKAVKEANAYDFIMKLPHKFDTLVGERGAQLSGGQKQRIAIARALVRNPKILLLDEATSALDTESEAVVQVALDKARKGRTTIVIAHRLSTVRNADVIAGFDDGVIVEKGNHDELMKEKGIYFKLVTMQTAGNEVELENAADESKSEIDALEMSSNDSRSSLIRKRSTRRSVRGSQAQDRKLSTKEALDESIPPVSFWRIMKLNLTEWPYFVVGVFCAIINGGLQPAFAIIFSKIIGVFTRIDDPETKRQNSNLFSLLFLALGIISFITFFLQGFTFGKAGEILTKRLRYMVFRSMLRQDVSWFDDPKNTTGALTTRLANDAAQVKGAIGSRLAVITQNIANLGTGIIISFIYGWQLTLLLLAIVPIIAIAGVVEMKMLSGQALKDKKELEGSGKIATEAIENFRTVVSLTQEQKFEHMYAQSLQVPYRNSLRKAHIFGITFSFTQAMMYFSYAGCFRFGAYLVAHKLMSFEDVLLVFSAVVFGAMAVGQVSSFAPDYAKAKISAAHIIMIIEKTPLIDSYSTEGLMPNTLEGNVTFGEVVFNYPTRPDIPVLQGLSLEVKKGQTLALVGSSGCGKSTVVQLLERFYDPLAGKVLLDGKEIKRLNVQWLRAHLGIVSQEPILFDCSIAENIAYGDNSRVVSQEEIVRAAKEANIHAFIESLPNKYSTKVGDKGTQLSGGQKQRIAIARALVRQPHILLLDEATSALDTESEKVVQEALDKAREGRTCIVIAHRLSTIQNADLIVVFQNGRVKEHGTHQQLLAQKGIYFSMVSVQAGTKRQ
Chain of Cytochrome P450 2C19 (P33261 whole entry): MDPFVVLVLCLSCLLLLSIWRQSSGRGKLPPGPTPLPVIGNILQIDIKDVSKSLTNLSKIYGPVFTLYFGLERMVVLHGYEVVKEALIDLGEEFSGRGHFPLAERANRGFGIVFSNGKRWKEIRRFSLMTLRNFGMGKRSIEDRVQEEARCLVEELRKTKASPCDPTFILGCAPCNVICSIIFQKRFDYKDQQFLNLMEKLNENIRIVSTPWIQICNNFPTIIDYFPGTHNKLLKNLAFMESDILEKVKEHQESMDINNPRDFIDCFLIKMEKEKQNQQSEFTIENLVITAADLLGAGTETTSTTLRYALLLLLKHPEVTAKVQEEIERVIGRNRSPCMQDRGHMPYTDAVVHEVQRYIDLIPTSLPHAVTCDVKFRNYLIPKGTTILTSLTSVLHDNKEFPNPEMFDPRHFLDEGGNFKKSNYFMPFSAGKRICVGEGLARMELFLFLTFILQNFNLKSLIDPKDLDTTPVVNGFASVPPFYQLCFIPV

SMILES: O=C(c1ccccc1)N1CCn2nc(-c3ccncc3)cc2C1
- IC50 [19]: 1.29 µM

SMILES: COc1cccc(C(=O)N2CCn3nc(-c4ccc(F)cn4)cc3C2)c1
- IC50 [19]: 0.482 µM

The next lines start with results.

- solubility [1]: 7 µg/mL (≈ 18.7 µM)
- half-life [2]: 9.2 h
- solubility [3]: 79 µg/mL (≈ 211 µM)
- Activity [4]: Not Active
- bioavailability [5]: 95%
- AUC(0-inf) [7]: 7220 ng·h/mL
- IC50 (Cytochrome P450 3A4): > 40 µM
- AUC(0-inf) [8]: 68700 ng·h/mL
- Papp [9]: 37 ×10⁻⁶ cm/s
- IC50 (Cytochrome P450 2D6): > 40 µM
- Drug uptake(free) [10]: 1.38 µM
- Kp at 1 h [11]: 1.38
- efflux ratio (P-gp (ABCB1)): 1.2
- fraction unbound at 1 h [12]: 0.05
- Vd [13]: 1.5 L/kg
- concentration at 1 h [14]: 29.5 µM
- IC50 (Cytochrome P450 2C19): > 40 µM
- Cmax [15]: 2930 ng/mL
- IC50 (Cytochrome P450 2C8): > 40 µM
- IC50 (Cytochrome P450 1A2): > 40 µM
- IC50 (Cytochrome P450 2A6): > 40 µM
- remaining at 0.5 h, 1 µM [16]: > 97%
- remaining at 0.5 h, 1 µM [17]: > 97%
- Activity [18]: Not Active
- IC50 [19]: 0.075 µM
- concentration at 1 h [20]: 21.4 µM
- IC50 (Cytochrome P450 2C9): > 40 µM
- clearance [21]: 2.3 mL/min/kg
SMILES: O=C(c1cc(F)cc(Cl)c1)N1CCn2nc(-c3ccc(F)cn3)cc2C1
- IC50 [6]: 15 µM
- Activity (Mus musculus): Active

- IC50 [19]: 0.201 µM
SMILES: O=C(c1ccccc1)N1CCn2nc(-c3ccc(Cl)cn3)cc2C1

- IC50 [19]: > 10 µM
SMILES: Cc1cccnc1-c1cc2n(n1)CCN(C(=O)c1ccccc1)C2

- IC50 [19]: > 10 µM
SMILES: O=C(c1ccccc1)N1CCn2nc(-c3cccnc3)cc2C1
